pIC50: −log10 of the molar value.
How the values were obtained:
HDAC9 = HDAC9 (Homo sapiens, UniProt Q9UKV0); experiment: HDAC isoform selectivity, HDAC9; assay type: biochemical; settings: HDAC subtype panel
HDAC11 = target: T1, HDAC11 (Homo sapiens, UniProt Q96DB2); experiment: HDAC isoform selectivity, HDAC11; assay type: biochemical; settings: HDAC subtype panel
T1 sequence (Q96DB2 1-347): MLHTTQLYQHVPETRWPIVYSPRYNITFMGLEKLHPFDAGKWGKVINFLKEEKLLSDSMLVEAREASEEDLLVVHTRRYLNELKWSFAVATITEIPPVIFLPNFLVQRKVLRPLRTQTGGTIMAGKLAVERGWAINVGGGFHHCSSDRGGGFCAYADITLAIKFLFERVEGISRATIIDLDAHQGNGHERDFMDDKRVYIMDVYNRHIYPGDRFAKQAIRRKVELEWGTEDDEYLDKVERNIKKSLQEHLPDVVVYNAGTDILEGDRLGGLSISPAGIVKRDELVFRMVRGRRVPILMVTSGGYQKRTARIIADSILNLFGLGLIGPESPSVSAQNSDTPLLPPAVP

Chain of HDAC9 (Q9UKV0 whole entry, canonical isoform): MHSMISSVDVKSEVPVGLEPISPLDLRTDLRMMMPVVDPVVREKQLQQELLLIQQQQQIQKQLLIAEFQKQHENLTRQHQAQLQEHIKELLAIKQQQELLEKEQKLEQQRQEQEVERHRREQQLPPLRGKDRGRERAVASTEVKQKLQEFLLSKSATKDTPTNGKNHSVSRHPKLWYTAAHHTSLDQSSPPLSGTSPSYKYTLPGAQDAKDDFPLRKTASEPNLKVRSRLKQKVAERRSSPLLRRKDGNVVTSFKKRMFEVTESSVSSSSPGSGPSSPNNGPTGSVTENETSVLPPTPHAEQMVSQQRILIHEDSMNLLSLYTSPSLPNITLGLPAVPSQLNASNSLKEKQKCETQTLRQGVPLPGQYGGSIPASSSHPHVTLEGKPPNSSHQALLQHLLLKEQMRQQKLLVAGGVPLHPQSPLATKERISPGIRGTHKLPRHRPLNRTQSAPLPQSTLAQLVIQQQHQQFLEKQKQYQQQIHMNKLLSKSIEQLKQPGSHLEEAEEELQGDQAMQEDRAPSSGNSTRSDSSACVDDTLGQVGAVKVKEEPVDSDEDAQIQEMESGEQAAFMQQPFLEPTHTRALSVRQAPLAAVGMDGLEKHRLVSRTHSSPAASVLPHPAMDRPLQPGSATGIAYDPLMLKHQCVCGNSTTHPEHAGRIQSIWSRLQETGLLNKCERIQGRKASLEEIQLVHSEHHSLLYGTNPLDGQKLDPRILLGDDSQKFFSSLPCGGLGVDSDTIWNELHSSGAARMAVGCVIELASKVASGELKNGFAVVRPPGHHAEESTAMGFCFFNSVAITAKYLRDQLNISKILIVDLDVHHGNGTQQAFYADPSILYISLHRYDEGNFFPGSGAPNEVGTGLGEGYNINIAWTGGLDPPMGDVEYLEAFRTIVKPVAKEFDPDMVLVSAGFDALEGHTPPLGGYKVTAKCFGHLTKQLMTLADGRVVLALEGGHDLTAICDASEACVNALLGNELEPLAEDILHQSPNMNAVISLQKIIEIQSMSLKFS

Work on O=C(CCCCCCC(=O)N1CCC(C(=O)Nc2ccc([C@@H]3[C@H]4CSCN4[C@]4(C(=O)Nc5cc(Cl)ccc54)[C@H]3C(=O)c3ccccc3)cc2)CC1)NO [compound 11b, N-(4-((3R,6'S,7'R,7a'S)-6'-benzoyl-6-chloro-2-oxo-1',6',7',7a'-tetrahydro-3'H-spiro[indoline-3,5'-pyrrolo[1,2-c]thiazol]-7'-yl)phenyl)-1-(8-(hydroxyamino)-8-oxooctanoyl)piperidine-4-carboxamide] yielded a pIC50 (HDAC9) of less than 5.00 and a pIC50 (HDAC11) of less than 5.00.

— article PMC9386376, “Discovery of spirooxindole-derived small-molecule compounds as novel HDAC/MDM2 dual inhibitors and investigation of their anticancer activity” (Frontiers in Oncology, 2022)
